In patent US10426813B2, “Method to enhance endurance” (KYOWA HAKKO BIO CO., LTD., priority 2009, dated 2019):
Entries after “also recorded” stand apart in the source; their conditions may differ. Peptide text beside a SMILES is read from it.

Legend:
[1] = Time to exhaustion test on cycle ergometer at 75% VO2 max after dehydration and rehydration; format: in vivo, human
Description: (§1) On four of the five subsequent visits to the HPL, subjects dehydrated to 2.5% of their baseline body mass. On the occasion that a dehydration protocol was not employed, subjects reported to the HPL in a euhydrated state to provide a baseline blood draw and perform the exercise protocol. This trial (T1) provided baseline performance data for how subjects performed in optimal conditions without hydration stress. All performance comparisons were made to this trial. In one trial (T2) subjects achieved their goal weight (−2.5% of baseline body weight) and rested in a recumbent position for 45 minutes before commencing the exercise session. In the subsequent three trials subjects reached their goal weight (−2.5% of baseline body mass) and then rehydrated to −1.5% of their baseline body mass by drinking either water (T3) or two different doses (T4 and T5) of the alanyl-glutamine (ALA-GLU) supplement (0.05 g·kg^−1 and 0.2 g·kg^−1, respectively). During the hydration trials (T3-T5), the exercise protocol began 45 minutes following reaching their goal weight. During this time frame, subjects were rehydrated. The order of the trials was randomly determined.
On the night before testing (5 p.m.), subjects reported to the HPL for weighing and urine specific gravity measures to ascertain that subjects were euhydrated. Subjects were then instructed to not consume any food or water until the next day when they reported back to the HPL (7 a.m.). […] On the morning of trials T2-T5, subjects reporting to the HPL were weighed and began the active dehydration protocol to achieve the desired weight loss. The active dehydration protocol required subjects to walk on a motorized treadmill at 3.4 mi·h^−1 and at a 2% incline. Subjects were fully clothed in a training suit (long cotton heavy weight fleece sweat pants and top). Nude body weight, heart rate, and rating of perceived exertion were monitored at 20-minute increments. […] At the end of the dehydration period, a urine specimen and blood samples were obtained. Dehydration was verified by measuring urine specific gravity and both urine and plasma osmolality. The time necessary to reach the goal body mass (−2.5% weight loss) was 62.5±44.2 min.
(§2) Subjects consumed the supplement or placebo (water) following the dehydration protocol as part of their rehydration to −1.5% of their baseline body mass. The L-alanyl-L-glutamine supplement (0.2 g·kg^−1 or 0.05 g·kg^−1) (Kyowa Hakko USA, New York, N.Y.) was mixed with water and was indistinguishable in appearance and taste from the placebo.
After dehydration and rehydration (except during trial T2), subjects began the exercise protocol. Subjects exercised at a workload that elicited 75% of their VO2 max on a cycle ergometer. Subjects were encouraged to give their best effort during each trial, and were verbally encouraged throughout each exercise trial. Oxygen consumption, minute ventilation, respiratory exchange ratio, and heart rate were measured continuously. Heart rate and blood pressure were recorded before and at the conclusion of exercise. Time to exhaustion was determined as the time that the subject could no longer maintain the workload and/or reach volitional exhaustion.

[2] = Plasma glutamine concentration during hydration stress and endurance exercise; format: in vivo, human
Description: as §1, §2
A baseline (BL) blood draw occurred during T1. No other blood was drawn during that trial. The BL blood sample was drawn following a 15-min equilibration period prior to exercise. […]
Hemoglobin was analyzed in triplicate from whole blood using the cyanmethemoglobin method (Sigma Diagnostics, St. Louis, Mo.). Hematocrit was analyzed in triplicate from whole blood via microcentrifugation (IEC micro-MB centrifuge, Needham, Mass.) and microcapillary technique. Plasma volume shifts following the workout were calculated using the formula of Dill & Costill (1974). […]

Q: Which results are given for `C[C@H](N)C(=O)N[C@@H](CCC(N)=O)C(=O)O` [alanyl-glutamine, L-alanyl-L-glutamine] (H-Ala-Gln-OH)?
A: Δ performance: time to exhaustion (difference to T1) ([1]; T4, 0.05 g·kg^−1, compared to T2 (dehydrated, no rehydration)): significantly greater times to exhaustion; trend of inhibiting the decrease in duration of exercise endurance ([1]; T4, 0.05 g·kg^−1, compared to T3 (water only)): even more pronounced; Δ performance: time to exhaustion (difference to T1) ([1]; T5, 0.2 g·kg^−1, compared to T2 (dehydrated, no rehydration)): significantly greater times to exhaustion; trend of inhibiting the decrease in duration of exercise endurance ([1]; T5, 0.2 g·kg^−1, compared to T3 (water only)): even more pronounced; effect on endurance ([1]; overall conclusion, independent of increases in plasma glutamine concentration): endurance enhancing effect; Plasma glutamine concentration ([2]; T4, 0.05 g/kg, compared to T3 (water only)): No differences; Plasma glutamine concentration ([2]; T5, 0.2 g·kg^−1, at RHY and IP, compared to T2-T4): significantly higher; also recorded: significantly increased; AUC of plasma glutamine concentration ([2]; T5, 0.2 g·kg^−1, compared to the other experimental trials): significantly higher
